This note sets out measurements from ChEMBL document CHEMBL1151134, “Anti-AIDS agents, 1. Isolation and characterization of four new tetragalloylquinic acids as a new class of HIV reverse transcriptase inhibitors from tannic acid” (J Nat Prod, 1989).

Data set [1] relates to Human immunodeficiency virus. In words: Inhibition of HIV reverse transcriptase assessed as incorporation of [3H]dTMP at 100 uM.
Data set [2] has as its system Human immunodeficiency virus. In words: Inhibition of HIV reverse transcriptase assessed as incorporation of [3H]dTMP at 30 uM.
Data set [3] has as its system Human immunodeficiency virus. In words: Inhibition of HIV reverse transcriptase assessed as incorporation of [3H]dTMP at 10 uM.
The subject of data set [4] is Human immunodeficiency virus 1. In words: Antiviral activity against HIV1 3B replication in human H9 cells at 25 uM after 3 days by p24 antigen capture assay relative to control. It counts as functional. Particulars: Human immunodeficiency virus 1, 3B, H9, 72 h.
For data set [5], the system named is Human immunodeficiency virus 1. In words: Antiviral activity against HIV1 3B replication in human H9 cells at 6.25 uM after 3 days by p24 antigen capture assay relative to control. It counts as functional. The following applies: Human immunodeficiency virus 1, 3B, H9, 72 h.
Data set [6] concerns Human immunodeficiency virus 1. In words: Antiviral activity against HIV1 3B replication in human H9 cells at 1.25 uM after 3 days by p24 antigen capture assay relative to control. It counts as functional. The following applies: Human immunodeficiency virus 1, 3B, H9, 72 h.
Data set [7] is described as follows: Cytotoxicity against human H9 cells at 25 uM. In kind it is cell-based. Particulars: read-out: INH.
Data set [8] concerns H9. In words: Cytotoxicity against human H9 cells at 1.25 uM. In kind it is cell-based. The following applies: h9, 1.25 µM.
Data set [9] has as its system H9. In words: Cytotoxicity against human H9 cells at 6.25 uM. It counts as cell-based. Particulars: h9, 6.25 µM.
The target of data set [10] is T1, DNA polymerase alpha catalytic subunit (Homo sapiens) (UniProt P09884).
T1 sequence (whole entry): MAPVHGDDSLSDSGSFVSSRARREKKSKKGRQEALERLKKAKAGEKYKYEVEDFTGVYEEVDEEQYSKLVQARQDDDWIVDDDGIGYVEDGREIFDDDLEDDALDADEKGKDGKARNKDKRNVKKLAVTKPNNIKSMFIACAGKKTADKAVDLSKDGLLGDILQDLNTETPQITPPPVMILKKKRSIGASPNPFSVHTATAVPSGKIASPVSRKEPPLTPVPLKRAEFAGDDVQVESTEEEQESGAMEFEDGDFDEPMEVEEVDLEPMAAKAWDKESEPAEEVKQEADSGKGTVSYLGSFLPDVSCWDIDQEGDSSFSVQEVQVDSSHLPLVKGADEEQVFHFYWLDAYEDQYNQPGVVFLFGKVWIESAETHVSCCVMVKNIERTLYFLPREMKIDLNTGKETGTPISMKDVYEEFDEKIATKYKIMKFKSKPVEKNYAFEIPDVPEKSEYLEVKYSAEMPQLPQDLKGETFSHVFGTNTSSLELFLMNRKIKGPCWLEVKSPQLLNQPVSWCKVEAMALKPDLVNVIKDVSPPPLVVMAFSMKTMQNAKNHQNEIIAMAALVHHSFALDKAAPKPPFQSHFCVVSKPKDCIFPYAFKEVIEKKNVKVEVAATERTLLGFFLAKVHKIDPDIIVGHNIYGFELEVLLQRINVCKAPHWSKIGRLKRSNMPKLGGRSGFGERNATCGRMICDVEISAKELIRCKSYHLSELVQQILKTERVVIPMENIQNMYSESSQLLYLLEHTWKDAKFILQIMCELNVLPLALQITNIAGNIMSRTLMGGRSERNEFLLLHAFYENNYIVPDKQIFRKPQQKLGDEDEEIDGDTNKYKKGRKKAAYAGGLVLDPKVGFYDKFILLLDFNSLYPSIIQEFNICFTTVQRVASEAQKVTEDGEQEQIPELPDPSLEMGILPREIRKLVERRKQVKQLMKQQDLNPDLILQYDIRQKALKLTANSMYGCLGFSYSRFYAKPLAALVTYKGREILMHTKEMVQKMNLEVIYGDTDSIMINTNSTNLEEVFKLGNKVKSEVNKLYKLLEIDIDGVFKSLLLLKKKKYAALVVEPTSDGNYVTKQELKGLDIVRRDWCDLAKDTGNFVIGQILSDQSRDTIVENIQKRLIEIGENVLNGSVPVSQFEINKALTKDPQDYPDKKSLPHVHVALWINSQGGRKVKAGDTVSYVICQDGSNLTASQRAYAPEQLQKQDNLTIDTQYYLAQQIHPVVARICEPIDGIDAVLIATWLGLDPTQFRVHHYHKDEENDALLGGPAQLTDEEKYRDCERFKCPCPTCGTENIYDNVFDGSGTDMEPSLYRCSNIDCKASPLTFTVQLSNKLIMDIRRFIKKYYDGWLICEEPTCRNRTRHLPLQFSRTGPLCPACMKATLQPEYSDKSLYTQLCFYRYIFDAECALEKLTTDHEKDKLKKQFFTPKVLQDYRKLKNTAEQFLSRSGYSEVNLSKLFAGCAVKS
In words: Inhibition of human DNA polymerase alpha.

Data set [11] has as its target DNA polymerase beta (Homo sapiens) (UniProt P06746). In words: Inhibition of human DNA polymerase beta.
The target of data set [12] is T2, DNA polymerase subunit gamma-1 (Homo sapiens) (UniProt P54098).
T2 sequence (whole entry): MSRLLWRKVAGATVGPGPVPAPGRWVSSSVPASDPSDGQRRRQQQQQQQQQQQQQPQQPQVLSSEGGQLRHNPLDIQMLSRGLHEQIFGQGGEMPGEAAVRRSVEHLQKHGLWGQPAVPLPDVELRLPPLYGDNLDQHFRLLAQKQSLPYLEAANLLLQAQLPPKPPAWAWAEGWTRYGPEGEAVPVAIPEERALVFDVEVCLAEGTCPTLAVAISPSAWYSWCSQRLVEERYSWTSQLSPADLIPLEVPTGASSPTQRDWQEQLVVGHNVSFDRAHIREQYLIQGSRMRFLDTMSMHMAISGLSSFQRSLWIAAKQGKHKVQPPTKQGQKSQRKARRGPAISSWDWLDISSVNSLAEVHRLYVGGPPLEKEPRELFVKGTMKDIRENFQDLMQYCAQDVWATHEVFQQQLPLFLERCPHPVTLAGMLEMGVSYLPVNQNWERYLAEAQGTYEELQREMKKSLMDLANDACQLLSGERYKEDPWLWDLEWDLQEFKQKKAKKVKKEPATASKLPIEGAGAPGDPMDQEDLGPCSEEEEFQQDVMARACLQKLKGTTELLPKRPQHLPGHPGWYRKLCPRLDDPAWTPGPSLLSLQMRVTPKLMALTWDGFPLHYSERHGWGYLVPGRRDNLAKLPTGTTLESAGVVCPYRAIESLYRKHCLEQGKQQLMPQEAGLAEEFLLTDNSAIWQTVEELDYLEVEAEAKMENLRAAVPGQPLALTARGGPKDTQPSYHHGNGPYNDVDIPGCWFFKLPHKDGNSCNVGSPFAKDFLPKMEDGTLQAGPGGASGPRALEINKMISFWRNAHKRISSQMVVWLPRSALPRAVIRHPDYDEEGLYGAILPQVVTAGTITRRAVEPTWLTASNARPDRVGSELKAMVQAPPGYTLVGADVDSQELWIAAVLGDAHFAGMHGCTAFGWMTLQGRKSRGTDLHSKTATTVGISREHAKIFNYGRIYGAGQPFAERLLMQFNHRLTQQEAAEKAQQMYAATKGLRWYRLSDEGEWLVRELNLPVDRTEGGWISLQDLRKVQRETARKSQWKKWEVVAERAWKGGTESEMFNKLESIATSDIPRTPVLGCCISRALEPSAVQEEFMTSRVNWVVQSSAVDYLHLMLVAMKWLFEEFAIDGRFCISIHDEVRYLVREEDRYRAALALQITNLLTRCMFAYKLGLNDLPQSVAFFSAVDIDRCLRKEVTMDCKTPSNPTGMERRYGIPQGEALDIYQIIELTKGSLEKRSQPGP
In words: Inhibition of human DNA polymerase gamma.

The test system of data set [13] is Human immunodeficiency virus. In words: Inhibition of HIV reverse transcriptase.
In data set [14] the test system is Human immunodeficiency virus 1. In words: Antiviral activity against HIV1 3B replication in human H9 cells at 30.8 uM after 3 days by p24 antigen capture assay relative to control. It counts as functional. Particulars: Human immunodeficiency virus 1, 3B, H9, 72 h.
Data set [15] relates to Human immunodeficiency virus 1. In words: Antiviral activity against HIV1 3B replication in human H9 cells at 7.7 uM after 3 days by p24 antigen capture assay relative to control. It counts as functional. Particulars: Human immunodeficiency virus 1, 3B, H9, 72 h.
Data set [16] has as its system Human immunodeficiency virus 1. In words: Antiviral activity against HIV1 3B replication in human H9 cells at 1.5 uM after 3 days by p24 antigen capture assay relative to control. It counts as functional. Particulars: Human immunodeficiency virus 1, 3B, H9, 72 h.
Data set [17] relates to Human immunodeficiency virus. In words: Inhibition of HIV reverse transcriptase assessed as incorporation of [3H]dTMP at 100 ug/ml.
Data set [18] concerns Human immunodeficiency virus. In words: Inhibition of HIV reverse transcriptase assessed as incorporation of [3H]dTMP at 100 nM.
The test system of data set [19] is Human immunodeficiency virus. In words: Inhibition of HIV reverse transcriptase assessed as incorporation of [3H]dTMP at 0.6 uM.

One may read the inhibition as the relative decrease from the control value, in per cent. Consider `O=C(Oc1c(O)cc(C(=O)O[C@@H]2C[C@@](O)(C(=O)O)C[C@@H](OC(=O)c3cc(O)c(O)c(O)c3)[C@@H]2OC(=O)c2cc(O)c(O)c(O)c2)cc1O)c1cc(O)c(O)c(O)c1`, for which the inhibition in data set [1] was 89%; in [2], 70%; in data set [3] it was 55%. Further, in [4], testing at 25 µM gave an inhibition of 63%. Also, the inhibition at 6.25 µM in [5] stood at 50%. Testing at 1.25 µM in [6] gave an inhibition of 28%. In data set [7], the cytotoxicity at 25 µM was 0%. Moreover, the Activity entry in the data set with H9 [8] and in the data set with H9 [9] was “Non-toxic” each time. For the same molecule, the ID50 in data set [10] stood at 0.065 µM; in data set [11], 21 µM; in data set [12], 2.5 µM; in [13] it was 29 µM.
Consider `O=C(O[C@@H]1C[C@](O)(C(=O)O)C[C@@H](OC(=O)c2cc(O)c(O)c(O)c2)[C@H]1OC(=O)c1cc(O)c(O)c(O)c1)c1cc(O)c(O)c(O)c1`, for which the results for the inhibition in data set [1], in data set [2] and in [3] were 58%, 48% and 39%, respectively. In addition, in data set [14], at 30.8 µM the inhibition was 70%. For the same molecule, in data set [15], the inhibition at 7.7 µM was found to be 59%. Further, the cytotoxicity at 25 µM in data set [7] was 14%. In addition, the Activity entry in the data set on H9 [8] and with H9 [9] was “Non-toxic” in each case. Besides, the inhibition at 1.5 µM in data set [16] came out at 26%.
Consider `O=C(OC[C@H]1O[C@@H](OC(=O)c2cc(O)c(O)c(OC(=O)c3cc(O)c(O)c(O)c3)c2)[C@H](OC(=O)c2cc(O)c(O)c(OC(=O)c3cc(O)c(O)c(O)c3)c2)[C@@H](OC(=O)c2cc(O)c(O)c(OC(=O)c3cc(O)c(O)c(O)c3)c2)[C@@H]1OC(=O)c1cc(O)c(O)c(OC(=O)c2cc(O)c(O)c(O)c2)c1)c1cc(O)c(O)c(OC(=O)c2cc(O)c(O)c(O)c2)c1`, for which, in data set [17], the inhibition came out at 74%.
Consider `O=C(Oc1c(O)cc(C(=O)O[C@H]2[C@H](OC(=O)c3cc(O)c(O)c(O)c3)C[C@](O)(C(=O)O)C[C@H]2OC(=O)c2cc(O)c(O)c(O)c2)cc1O)c1cc(O)c(O)c(O)c1`, for which the inhibition in data set [1] was 90%; in data set [2] it was 73%; in [3], 53%. In data set [4], this molecule registered an inhibition at 25 µM of 71%. Testing at 6.25 µM in data set [5] gave an inhibition of 57%. This molecule also showed an inhibition at 1.25 µM in data set [6] of 34%. In addition, the cytotoxicity at 25 µM in [7] turned out to be 14%. In addition, the Activity result with H9 [8] and in the data set on H9 [9] was “Non-toxic” in each case.
`O=C(O[C@@H]1C[C@](OC(=O)c2cc(O)c(O)c(O)c2)(C(=O)O)C[C@@H](OC(=O)c2cc(O)c(O)c(O)c2)[C@H]1OC(=O)c1cc(O)c(O)c(O)c1)c1cc(O)c(O)c(O)c1`: the inhibition was 94% in data set [1], 84% in [2] and 36% in data set [3]. The molecule further showed an inhibition at 25 µM in data set [4] of 66%. The molecule also returned an inhibition at 6.25 µM in data set [5] of 52%. The molecule also had an inhibition at 1.25 µM in data set [6] of 15%. Moreover, the cytotoxicity at 25 µM in data set [7] is 25%. In addition, the Activity result in the data set on H9 [8] and with H9 [9] was “Non-toxic” throughout.
Turning to `O=C(Oc1c(O)cc(C(=O)O[C@@H]2C[C@](O)(C(=O)O)C[C@@H](OC(=O)c3cc(O)c(O)c(O)c3)[C@H]2OC(=O)c2cc(O)c(O)c(O)c2)cc1O)c1cc(O)c(O)c(O)c1`, the values for the inhibition in data set [1], in data set [2] and in data set [3] were 84%, 63% and 50%, respectively. This molecule displayed an inhibition at 25 µM in data set [4] of 61%. In addition, in data set [5], at 6.25 µM the inhibition was 44%. The inhibition at 1.25 µM in data set [6] was 13%. The cytotoxicity at 25 µM in data set [7] came out at 25%. Further, the Activity result in the data set with H9 [8] and with H9 [9] was “Non-toxic” each time.
Take `Cc1cn([C@H]2C[C@H](N=[N+]=[N-])[C@@H](COP(=O)(O)OP(=O)(O)OP(=O)(O)O)O2)c(=O)[nH]c1=O`: the inhibition in data set [18] was found to be 64%.
Consider `O=C(O)P(=O)(O)O`, for which the inhibition in data set [19] came out at 63%.
